These results are taken from patent US8642350B2, “Sensor material and uses thereof to simultaneously sense two analytes: oxygen and pH or acidic/basic gaseous ions” (University College Cork, National University of Ireland, …, priority 2010, dated 2014).

Holding throughout (format): physicochemical
Data set [1] in a line: Absorption and emission spectra of thin film sensor coatings. As to conditions: solid state sensor form. From the text: On the other hand, protonation of the peripheral group (Schiff base) leads to the formation of a delocalised carbocation represented by 10 resonant structures. This process is accompanied by major spectral changes: a shift in absorbance peak from 398 nm to 443 nm and the disappearance of the porphyrin type of electronic spectra and phosphorescence. The process is reversible and potentially allows for sensing of the protonation or pH changes by means of absorbance or phosphorescence measurements.
(§1) This cocktail of sensor components was applied in 2 μl aliquots on a solid support (e.g. Mylar® foil or microporous polymeric membrane) and left to evaporate all the solvents. […] Other sensor formulations can also be used, such formulations are known to specialists in the area.
(§2) Thin film (˜5 μm) sensor coatings produced according to Table 1 were studied for their photophysical, O2 and pH sensing properties.

The nature of data set [2]: pH calibration (pKa) of solid state sensors by absorbance / phosphorescence intensity. As to conditions: for pH range covered by the sensor: air-saturated buffer; for pKa value (21% O2) 0 mM NaCl / pKa value (21% O2) 500 mM NaCl: solid state sensor form. How it is done: (§3) FIG. 2: Oxygen calibration in the phosphorescence lifetime (A) and Stern-Volmer (right) scales for the Pt-OEP-CH═N—CH3 (♦) and Pd-OEP-CH═N—CH3 (▪) sensors, measured in sodium acetate, pH 6 at 24° C. (B). pH calibration of Pt-OEP-CH═N—CH3 (absorbance) at certain pH steps, the two black bars show the bandwidth of commercial LEDs at 400 nm and 450 nm (C) and of Pt-OEP-CH═N—CH3 (♦) and Pd-OEP-CH═N—CH3 (▪) at 24° C. and 30° C. respectively (emission intensity) (D), measured in sodium acetate.
as §1, §2
With respect to their pH sensitivity, the two sensors produced the anticipated spectral responses which occurred in the useful range of pH. […] However, the decrease in phosphorescence intensity signal occurred without any significant changes in the phosphorescence lifetime.

Data set [3] in a line: Oxygen calibration by phosphorescence lifetime (quenching by dissolved O2). The following applies: for quenching by dissolved O2: sensors in aqueous solutions, 0-21 kPa O2; for Lifetime 0% O2 / Lifetime 21% O2: solid state sensor form; for Lifetime 0% O2: 0% O2, 24° C.; for Lifetime 21% O2: 21% O2, 24° C. How it is done: as §3, §1, §2
The unquenched phosphorescence lifetime of 70 μs in O2-free buffer (at 24° C.) was close to that of the other Pt-porphyrins and O2 sensors on their basis. In air-saturated solution (20.9 kPa or 250 μM) the lifetime was reduced by approximately 60%. […] Full O2 calibrations of the two sensors show a pronounced non-linearity of Stern-Volmer plots (in FIG. 2B).

Turning to `CCC1=C(CC)c2cc3[n-]c(c(C=NC)c4nc(cc5[n-]c(cc1n2)c(CC)c5CC)C(CC)=C4CC)c(CC)c3CC.[Pt+2]` [Pt—OEP—CH═NMe], the Emission in data set [1] is listed as 670 nm. For the same compound, in data set [1] (pH 2.0), the Absorption is 443 (pH 2.0) nm. The Absorption in data set [1] (pH 8.0) was 398 (pH 8.0) nm. In data set [2] (24° C.), the “pH range covered by the sensor” value is reported as 5-7 and the “pKa value (21% O2) 0 mM NaCl” value is on record as 4.3 (24° C.). For the same compound, in data set [2] (difference between the two sensors), the “pKa more acidic than the Pd-OEP-CH═N—CH3 sensor” value was approximately 1 pH unit. In addition, in data set [2] (30° C.), the “pKa value (21% O2) 0 mM NaCl” value is recorded as 5.9 (30° C.) and the “pKa value (21% O2) 500 mM NaCl” value is 5.5 (30° C.). Further, the “reduction of lifetime in air-saturated solution” value in data set [3] (air-saturated solution (20.9 kPa or 250 μM O2)) was “approximately 60%”. The compound also gave an unquenched phosphorescence lifetime in data set [3] (sensor in O2-free buffer, 24° C.) of 70 μs. Moreover, in data set [3], the “quenching by dissolved O2” value is listed as “moderate quenching”, the “Lifetime 0% O2” value was 60 (24° C.) μs and the “Lifetime 21% O2” value is listed as 36 (24° C.) μs.
In data set [1], `CN=CC1=C2N=C(C=c3c(C)c(CCC(=O)OC)c4[n]3[Pd][n]3c(c(C)c(CCC(=O)OC)c31)C=C1N=C(C=4)C(C)=C1CCC(=O)OC)C(CCC(=O)OC)=C2C` [Pd—CPE—CH═NMe] showed an Emission of 673 nm. The Absorption in data set [1] (pH 2.0) is 443 (pH 2.0) nm. The Absorption in data set [1] (pH 8.0) is reported as 398 (pH 8.0) nm. Besides, in data set [2] (24° C.), the “pH range covered by the sensor” value is on record as 6.5-8.0, the “pKa value (21% O2) 0 mM NaCl” value is 5.9 (24° C.) and the “pKa value (21% O2) 500 mM NaCl” value was 5.5 (24° C.). Moreover, the “pH range the dual-analyte sensor is well suited for” value in data set [2] (physiological range) was 6-8. Also, in data set [2] (30° C.), the “pKa value (21% O2) 0 mM NaCl” value was 6.9 (30° C.) and the “pKa value (21% O2) 500 mM NaCl” value was 6.5 (30° C.). Also, in data set [3] (phosphorescence lifetime modality), the “cross-sensitivity of O2 response to pH” value is “no cross-sensitivity to pH”. For the same compound, in data set [3] (physiological range), the “O2 range the dual-analyte sensor is well suited for” value fell in the range of 0 to 200 µM. Further, the unquenched lifetime in data set [3] (sensor, unquenched) is 147 µs. Moreover, in data set [3], the “quenching by dissolved O2” value is listed as “more favorable quenchability”, the “Lifetime 0% O2” value is on record as 172 (24° C.) μs and the “Lifetime 21% O2” value is 33 (24° C.) μs.
